The supplement of paper PMC10307832

How the values were obtained:
Test in all cases: relative viability (nuclei count vs DMSO), 5 days (fraction); higher = more cells survive
Tosedostat + Tozasertib = compound: CC(C)C[C@@H](C(=O)N[C@H](C(=O)OC1CCCC1)c1ccccc1)[C@H](O)C(=O)NO [Tosedostat] + Cc1cc(Nc2cc(N3CCN(C)CC3)nc(Sc3ccc(NC(=O)C4CC4)cc3)n2)n[nH]1 [Tozasertib] (partner 0.1 µM)
How it was run: (§1)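 Relative viability was taken as the ratio of nuclei in treated wells to nuclei in vehicle wells. Lung cancer cell lines in 1536-well plates received compounds by pin tool one day after seeding, either one drug alone or a fixed anchor-drug dose plus five library-drug doses (not always all listed) in √10 steps. Nuclei were counted on 4× images after 5 days of treatment, and values are medians of duplicate plates.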

[1] = compound: CC1=NN=C(O1)C2=NN=C(C=C2)N3CCC(CC3)OC4=C(C=CC(=C4)F)Cl + CC1(C)CCC(c2ccc(Cl)cc2)=C(CN2CCN(c3ccc(C(=O)NS(=O)(=O)c4ccc(N[C@H](CCN5CCOCC5)CSc5ccccc5)c(S(=O)(=O)C(F)(F)F)c4)cc3)CC2)C1 [Navitoclax] (partner 0.5 µM)
How it was run: as §1

[2] = compound: CC1=NN=C(O1)C2=NN=C(C=C2)N3CCC(CC3)OC4=C(C=CC(=C4)F)Cl + C[C@@H](Oc1cc(-c2cnn(C3CCNCC3)c2)cnc1N)c1c(Cl)ccc(F)c1Cl [Crizotinib] (partner 1 µM)
How it was run: as §1

[3] = compound: CC1=NN=C(O1)C2=NN=C(C=C2)N3CCC(CC3)OC4=C(C=CC(=C4)F)Cl + Nc1nc2[nH]cc(CCc3ccc(C(=O)N[C@@H](CCC(=O)O)C(=O)O)cc3)c2c(=O)[nH]1 [Pemetrexed] (partner 0.2 µM)
How it was run: as §1

Row | Cell Line | relative viability (Tosedostat + Tozasertib; first compound 0.02 µM) | relative viability (Tosedostat + Tozasertib; first compound 0.06325 µM) | relative viability (Tosedostat + Tozasertib; first compound 0.2 µM) | relative viability (Tosedostat + Tozasertib; first compound 0.6325 µM) | relative viability (Tosedostat + Tozasertib; first compound 2 µM) | relative viability ([1]; first compound 0.253 µM) | relative viability ([1]; first compound 0.8 µM) | relative viability ([1]; first compound 2.53 µM) | relative viability ([1]; first compound 8 µM) | relative viability ([2]; first compound 0.253 µM) | relative viability ([2]; first compound 0.8 µM) | relative viability ([2]; first compound 2.53 µM) | relative viability ([2]; first compound 8 µM) | relative viability ([3]; first compound 0.253 µM) | relative viability ([3]; first compound 0.8 µM) | relative viability ([3]; first compound 2.53 µM) | relative viability ([3]; first compound 8 µM)
1 | NCI-H2170 | 0.737 | 0.728 | 0.734 | 0.707 | 0.689 | 0.464 | 0.421 | 0.556 | 0.417 | 0.553 | 0.573 | 0.638 | 0.449 | 0.241 | 0.218 | 0.242 | 0.256
2 | NCI-H23 | 0.491 | 0.347 | 0.41 | 0.26 | 0.294 | 0.808 |  | 0.71 | 0.722 | 0.6 |  | 0.454 | 0.441 | 0.669 | 0.543 | 0.698 | 0.622
3 | NCI-H596 | 0.893 | 0.875 | 0.791 | 0.934 | 0.729 |  | 0.756 | 0.894 | 0.723 |  | 0.95 | 0.963 | 0.795 | 0.52 | 0.494 | 0.476 | 0.394
4 | SK-LU-1 | 0.356 | 0.282 | 0.275 | 0.285 | 0.225 | 0.765 | 0.957 | 0.706 | 0.531 | 0.895 | 0.732 | 0.826 | 0.589 | 1.03 | 0.9 | 0.867 | 0.829
5 | LU99A | 0.253 | 0.284 | 0.277 | 0.242 | 0.225 | 0.836 | 0.723 | 0.858 | 0.582 | 0.571 | 0.604 | 0.655 | 0.552 | 0.149 | 0.18 | 0.162 | 0.164
6 | NCI-H520 | 0.448 | 0.478 | 0.438 | 0.399 | 0.542 | 0.926 | 0.566 | 1.05 | 1.09 | 0.692 | 0.707 | 0.694 | 0.632 | 0.644 | 0.543 | 0.642 | 0.471
7 | PC-3 [JPC-3] | 0.892 | 0.954 | 0.87 | 0.802 | 0.571 | 0.764 | 0.691 | 0.796 | 0.722 | 0.754 | 0.791 | 0.818 | 0.75 | 1.05 | 0.816 | 1.06 | 0.791
8 | RERF-LC-KJ | 0.553 | 0.462 | 0.403 | 0.304 | 0.293 | 0.781 |  | 0.671 | 0.765 | 0.496 | 0.498 | 0.495 | 0.458 | 0.446 | 0.43 | 0.438 | 0.455
9 | NCI-H1915 | 0.473 | 0.432 | 0.492 | 0.352 | 0.289 | 0.372 | 0.281 | 0.348 | 0.277 | 0.445 | 0.312 | 0.311 | 0.253 | 0.376 | 0.232 | 0.3 | 0.235
10 | H3255 | 0.575 | 0.717 | 0.643 | 0.534 | 0.656 | 0.494 | 0.422 | 0.524 | 0.39 | 0.548 | 0.646 | 0.538 | 0.625 | 0.506 | 0.533 | 0.518 | 0.577
11 | 201T | 0.938 | 1.02 | 1.06 | 1.11 | 0.968 | 0.542 | 0.627 | 0.53 | 0.529 | 0.456 | 0.504 | 0.499 | 0.484 | 0.314 | 0.255 | 0.316 | 0.339
12 | NCI-H2405 | 0.764 | 0.737 | 0.76 | 0.667 | 0.612 | 0.902 | 0.722 | 0.784 | 0.83 | 0.503 | 0.428 | 0.465 | 0.428 | 0.595 | 0.562 | 0.563 | 0.594
13 | HOP-62 | 0.393 | 0.31 | 0.329 | 0.323 | 0.152 | 0.834 | 0.542 | 0.816 | 0.863 | 0.71 |  | 0.784 | 0.575 | 0.315 | 0.318 | 0.231 | 0.17
14 | CAL-12T | 0.366 | 0.313 | 0.345 | 0.279 | 0.301 | 1 | 1.09 | 0.834 | 1 | 0.552 | 0.602 | 0.728 | 0.506 | 0.946 | 1.05 | 1.03 | 0.9
15 | NCI-H1993 | 0.631 | 0.535 | 0.56 | 0.588 | 0.493 | 0.804 | 0.824 | 0.876 | 0.878 | 0.779 | 0.806 | 0.794 | 0.993 | 0.533 | 0.499 | 0.566 | 0.541
16 | NCI-H2228 | 0.375 | 0.286 | 0.216 | 0.101 | 0.0875 | 0.63 | 0.592 | 0.756 | 0.526 | 0.357 | 0.408 | 0.533 | 0.42 | 0.28 | 0.333 | 0.3 | 0.363
17 | NCI-H2126 | 0.829 | 0.853 | 0.852 | 0.789 | 0.618 | 0.785 | 0.759 | 0.747 | 0.645 | 0.921 | 0.858 | 0.891 | 0.841 | 0.69 | 0.607 | 0.635 | 0.606
